Experimental data: patent US11591634B1, “Forecasting bacterial survival-success and adaptive evolution through multiomics stress-response mapping and machine learning” (priority 2019, dated 2023)
Converted amounts (≈) assume the structure as drawn.

Key:
Type in all cases: cell-based, Streptococcus pneumoniae
[1] = tested on: S. pneumoniae strain TIGR4 (T4); test: Determination of relative minimal inhibitory concentration (MIC); conditions: lowest concentration that abolishes bacterial growth, 16 hours, 37° C.; for MIC: Streptococcus pneumoniae, read-out: 1x MIC for T4
Method: (§1) Each concentration was tested in triplicate. Growth was monitored on a Tecan Infinite 200 PRO plate reader at 37° C. for 16 hours. MIC is determined as the lowest concentration that abolishes bacterial growth (FIGS. 6A-6H).

[2] = tested on: S. pneumoniae strain Taiwan-19F (19F); test: as above; conditions: for MIC: Streptococcus pneumoniae, 16 h, read-out: 1x MIC for 19F
Method: as §1

S. pneumoniae 19F = test: Fitness outcome under antibiotic exposure (growth curve assay); conditions: for Fitness: S. pneumoniae 19F wild-type, growth curves; for Survive (real survival outcome): strain 19F, Adapted FALSE
Method: (§2) To test whether a gene-panel model can be trained that predicts fitness for many different conditions, a large RNA-Seq dataset was generated for the human pathogen Streptococcus pneumoniae. […] These include cell wall synthesis inhibitors (CWSI), DNA synthesis inhibitors (DSI), protein synthesis inhibitors (PSI) and RNA synthesis inhibitors ((RSI); FIG. 1A, Tables 1 & 2). Each strain was exposed to each antibiotic for 2 to 4 hours and cells were harvested for RNA-Seq at various time points. As T4 and 19F are susceptible to most antibiotics used, the transcriptional profiles in the presence of antibiotics mostly represent cases of low fitness (FIG. 1A, sensitive strain, 1xMICWT). In order to find patterns that differentiate fitness outcomes, adapted strains were generated with increased fitness in the presence of antibiotics by serial passaging wildtype T4 and 19F in the presence of increasing amounts of antibiotics. Four independent adapted populations for each strain were selected on individual antibiotics. These adapted strains could grow in the presence of antibiotic at 1.5xMIC of the wildtype strain, albeit with a small growth defect (FIGS. 6A-6E & 6F). In parallel, RNA-Seq was performed on S. pneumoniae strains D39 and T4 in a chemically defined medium, and media from which either uracil, Glycine or L-Valine was removed, which are essential for D39 but not T4. This enabled the potential identification of a common stress signature that is shared between antibiotic exposure and nutrient deprivation, and across multiple strains. Lastly, D39 was adapted to grow in the absence of each individual nutrient, after which RNA-Seq was repeated for adapted clones (Table 1 lists all 24 strains, 67 populations and 267 RNA-Seq experiments).
(§3) S. pneumoniae strain TIGR4 (T4; NC_003028.3) is a serotype 4 strain originally isolated from a patient^3,4, Taiwan-19F (19F; NC_012469.1) is a multi-drug resistant strain^5,6 and D39 (NC_008533) is a commonly used serotype 2 strain originally isolated from a patient about 90 years ago^7. Strain PG1 and PG19 were isolated from adults with pneumococcal bacteremia infection and included in the Pneumococcal Bacteremia Collection Nijmegen (PBCN)^8. All S. pneumoniae gene numbers refer to the T4 genome. Correspondence between homologous genes among S. pneumoniae strains and gene function annotations are described herewith. Escherichia coli strain AR538, Klebsiella pneumoniae strain AR497 and Salmonella enterica subsp Typhimurium strain AR635 were clinical isolates obtained from the Center of Disease Control (CDC). Staphylococcus aureus strain MN6 was kindly provided by George Sakoulas (Center of Immunity, Infection & Inflammation, UCSD School of Medicine). Unless otherwise specified, S. pneumoniae strains were cultivated in Todd Hewitt medium with 5% yeast extract (THY) with 5 μL/mL oxyrase (Oxyrase, Inc) or on sheep's blood agar plates (Northeastern Laboratories) at 37° C. with 5% CO2. A. baumannii, E. coll. K. pneumoniae, S. aureus and S. Typhimurium were cultured in Mueller Hinton broth II (Sigma) at 37° C. with 220 rpm constant shaking. Tn-Seq and RNA-Seq experiments of S. pneumoniae under nutrient-depletion and antibiotic conditions were performed in chemically defined medium (CDM)^9 and semi-defined minimal medium (SDMM)^10, respectively. RNA-Seq experiments for A. baumannii, S. Typhimurium, E. coll. K. pneumoniae, and S. aureus were performed in Mueller Hinton broth II. Single strain growth assays were performed at least three times using 96-well plates by taking OD600 measurements on a Tecan Infinite 200 PRO plate reader.

S. pneumoniae T4 = test: as above; conditions: for Fitness: S. pneumoniae T4 wild-type, 1xMIC antibiotic, growth curves; for Survive (real survival outcome): strain T4, Adapted FALSE
Method: as §2, §3

[3] = tested on: adapted S. pneumoniae strain D39; test: Real survival outcome (fitness outcome) under nutrient condition, adapted strain; conditions: strain D39, Adapted TRUE, Concentration NA
S. pneumoniae strain D39 = test: Real survival outcome (fitness outcome) under nutrient condition; conditions: strain D39, Adapted FALSE, Concentration NA
[4] = tested on: antibiotic-adapted S. pneumoniae 19F (a19F); test: Fitness outcome under antibiotic exposure (growth curve assay); conditions: for Fitness: a19F, 19F adapted to the respective antibiotic, 1xMIC and 1.5-2xMIC, growth curves; for Survive (real survival outcome): strain 19F, Adapted TRUE
Method: as §2, §3
(§4) D39 was used as the parental strain in nutrient-depletion evolution experiments; T4 and 19F were used as parental strains in antibiotic evolution experiments. […] Four replicate populations were serial passaged in CDM or SDMM as controls to identify background adaptations in nutrient or antibiotic adaptation experiments, respectively. […]

[5] = tested on: antibiotic-adapted S. pneumoniae T4 (aT4); test: as above; conditions: for Survive (real survival outcome): strain T4, Adapted TRUE
Method: as §2, §3, §4

| Compound | MIC [1] [µg/mL] | MIC [2] [µg/mL] | Fitness (S. pneumoniae T4) | Survive (real survival outcome) (S. pneumoniae T4; Concentration NA) | also measured |
| --- | --- | --- | --- | --- | --- |
| CO/N=C(\C(=O)N[C@@H]1C(=O)N2C(C(=O)[O-])=C(C[N+]3(C)CCCC3)CS[C@H]12)c1csc(N)n1 [Cefepime, cefepime] | 0.8 (≈ 1.66 µM) | 2.2 (≈ 4.58 µM) | Low | – | Fitness (S. pneumoniae 19F): Low, and High; Survive (real survival outcome) (S. pneumoniae 19F; Concentration H (high)): FALSE; Survive (real survival outcome) (S. pneumoniae 19F; Concentration L (low)): TRUE; Survive (real survival outcome) (S. pneumoniae T4; Concentration L (low)): FALSE |
| COc1c(N2C[C@@H]3CCCN[C@@H]3C2)c(F)cc2c(=O)c(C(=O)O)cn(C3CC3)c12 [Moxifloxacin, moxifloxacin] | 0.45 (≈ 1.12 µM) | – | – | – | – |
| C[C@@H](O)[C@H]1C(=O)N2C(C(=O)O)=C(SCCN=CN)C[C@H]12 [Imipenem, imipenem] | 0.03 (≈ 0.1 µM) | – | – | – | – |
| CCCCCCCCCC(=O)N[C@@H](Cc1c[nH]c2ccccc12)C(=O)N[C@H](CC(N)=O)C(=O)N[C@@H](CC(=O)O)C(=O)N[C@@H]1C(=O)NCC(=O)N[C@@H](CCCN)C(=O)N[C@@H](CC(=O)O)C(=O)N[C@H](C)C(=O)N[C@@H](CC(=O)O)C(=O)NCC(=O)N[C@H](CO)C(=O)N[C@@H]([C@H](C)CC(=O)O)C(=O)N[C@@H](CC(=O)c2ccccc2N)C(=O)O[C@@H]1C [Daptomycin, daptomycin] | 35 (≈ 21.6 µM) | 35 (≈ 21.6 µM) | Low | – | Fitness (S. pneumoniae 19F): Low; Survive (real survival outcome) (S. pneumoniae 19F; Concentration L (low)): FALSE; Survive (real survival outcome) (S. pneumoniae T4; Concentration L (low)): FALSE |
| CC(C)[C@H](N)C(=O)O [VAL] | – | – | – | TRUE | Survive (real survival outcome) [3]: TRUE; Survive (real survival outcome) (S. pneumoniae strain D39): FALSE |
| NC[C@H]1O[C@H](O[C@H]2[C@H](O)[C@@H](O[C@H]3O[C@H](CO)[C@@H](O)[C@H](N)[C@H]3O)[C@H](N)C[C@@H]2N)[C@H](N)C[C@@H]1O [Tobramycin, tobramycin] | 175 (≈ 374 µM) | – | Low | FALSE | – |
| NCC(=O)O [GLY] | – | – | – | TRUE | Survive (real survival outcome) (S. pneumoniae strain D39): FALSE |
| CC1(C)S[C@@H]2[C@H](NC(=O)[C@H](N)c3ccc(O)cc3)C(=O)N2[C@H]1C(=O)O [Amoxicillin, amoxicillin] | 0.12 (≈ 0.328 µM) | – | Low | FALSE | – |
| CN(C)[C@@H]1C(O)=C(C(N)=O)C(=O)[C@@]2(O)C(O)=C3C(=O)c4c(O)cccc4[C@@](C)(O)[C@H]3C[C@@H]12 [Tetracycline, tetracycline] | 8 (≈ 18 µM) | 22 (≈ 49.5 µM) | – | – | – |
| O=c1cc[nH]c(=O)[nH]1 [URA] | – | – | – | TRUE | Survive (real survival outcome) [3]: TRUE; Survive (real survival outcome) (S. pneumoniae strain D39): FALSE |
| CO[C@H]1/C=C/O[C@@]2(C)Oc3c(C)c(O)c4c(O)c(c(/C=N/N5CCN(C)CC5)c(O)c4c3C2=O)NC(=O)/C(C)=C\C=C\[C@H](C)[C@H](O)[C@@H](C)[C@@H](O)[C@@H](C)[C@H](OC(C)=O)[C@@H]1C [Rifampicin, rifampicin] | 0.035 (≈ 0.0425 µM) | 0.035 (≈ 0.0425 µM) | – | – | – |
| CO/N=C(\C(=O)N[C@@H]1C(=O)N2C(C(=O)O)=C(CSc3nc(=O)c(=O)[nH]n3C)CS[C@H]12)c1csc(N)n1 [Ceftriaxone, ceftriaxone] | 0.007 (≈ 0.0126 µM) | – | Low | FALSE | – |
| CN[C@H](CC(C)C)C(=O)N[C@H]1C(=O)N[C@@H](CC(N)=O)C(=O)N[C@H]2C(=O)N[C@H]3C(=O)N[C@H](C(=O)N[C@H](C(=O)O)c4cc(O)cc(O)c4-c4cc3ccc4O)[C@H](O)c3ccc(c(Cl)c3)Oc3cc2cc(c3O[C@@H]2O[C@H](CO)[C@@H](O)[C@H](O)[C@H]2O[C@H]2C[C@](C)(N)[C@H](O)[C@H](C)O2)Oc2ccc(cc2Cl)[C@H]1O [Vancomycin, vancomycin] | 0.24 (≈ 0.166 µM) | 0.24 (≈ 0.166 µM) | Low | – | Fitness [4]: High; Survive (real survival outcome) ([4]; Concentration H (high)): TRUE; Survive (real survival outcome) ([4]; Concentration L (low)): TRUE; Fitness ([5]; aT4, T4 adapted to the respective antibiotic, 1xMIC and 1.5-2xMIC, growth curves): High; Survive (real survival outcome) ([5]; Concentration H (high)): TRUE; Survive (real survival outcome) ([5]; Concentration L (low)): TRUE; Fitness (S. pneumoniae 19F): Low; Survive (real survival outcome) (S. pneumoniae 19F; Concentration L (low)): FALSE; Survive (real survival outcome) (S. pneumoniae T4; Concentration L (low)): FALSE |
| C[C@H]1COc2c(N3CCN(C)CC3)c(F)cc3c(=O)c(C(=O)O)cn1c23 [Levofloxacin, levofloxacin] | 1 (≈ 2.77 µM) | 1.1 (≈ 3.04 µM) | – | – | – |
| penicillin | – | – | Low | – | Fitness [4]: High; Survive (real survival outcome) ([5]; Concentration H (high)): TRUE; Survive (real survival outcome) ([5]; Concentration L (low)): TRUE; 1x MIC for T4 [1]: 0.03 µg/mL; 1x MIC for 19F ([2]; S. pneumoniae 19F, lowest concentration that abolishes bacterial growth, 16 hours, 37° C.): 2.25 µg/mL; Fitness (S. pneumoniae 19F): High; Survive (real survival outcome) (S. pneumoniae 19F; Concentration L (low)): TRUE; Survive (real survival outcome) (S. pneumoniae T4; Concentration L (low)): FALSE |
| CC(=O)NC[C@H]1CN(c2ccc(N3CCOCC3)c(F)c2)C(=O)O1 [Linezolid, linezolid] | 0.5 (≈ 1.48 µM) | – | Low | FALSE | – |
| cotrimoxazole | – | – | Low | FALSE | 1x MIC for T4 [1]: 6.5 µg/mL |
| NC[C@H]1O[C@H](O[C@H]2[C@H](O)[C@@H](O[C@H]3O[C@H](CO)[C@@H](O)[C@H](N)[C@H]3O)[C@H](N)C[C@@H]2N)[C@H](O)[C@@H](O)[C@@H]1O [Kanamycin, kanamycin] | 90 (≈ 186 µM) | 90 (≈ 186 µM) | – | – | – |
